Results taken from ChEMBL document CHEMBL5647688, “Mitogen-activated protein kinase (MEK/ERK) inhibition sensitizes cancer cells to centromere-associated protein E inhibition” (Int J Cancer, 2013).

Assays:
Format in all cases: functional
NCI-H2030 = assay: Synergistic cytotoxicity against human NCI-H2030 cells expressing KRAS mutant assessed as combination index at ED 50 measured after 72 hrs in presence of MEK inhibitor GSK1120212 by Cell-titer Glo reagent assay
SK-N-FI [1] = assay: Synergistic cytotoxicity against human SK-N-FI cells assessed as combination index at ED 50 measured after 72 hrs in presence of concurrent treatment of […] inhibitor CI-1040 by Cell-titer Glo reagent assay
NCI-H1299 = assay: Synergistic cytotoxicity against human NCI-H1299 cells expressing NRAS mutant assessed as combination index at ED75 measured after 72 hrs in presence of MEK inhibitor GSK1120212 by Cell-titer Glo reagent assay
NCI-H460 = assay: Synergistic cytotoxicity against human NCI-H460 cells expressing KRAS mutant assessed as combination index at ED 50 measured after 72 hrs in presence of MEK inhibitor GSK1120212 by Cell-titer Glo reagent assay
SK-N-FI [2] = assay: Synergistic cytotoxicity against human SK-N-FI cells assessed as combination index at ED 50 measured after 72 hrs in presence of SN-38 and temozolomide by Cell-titer Glo reagent assay
[3] = Synergistic cytotoxicity against human NB-1771 cells assessed as combination index at ED 75 measured after 72 hrs in presence of concurrent treatment of […] inhibitor CI-1040 by Cell-titer Glo reagent assay
NB-1691 = assay: Synergistic cytotoxicity against human NB-1691 cells assessed as combination index at ED 75 measured after 72 hrs in presence of temozolomide by Cell-titer Glo reagent assay
NCI-H2228 = assay: Synergistic cytotoxicity against human NCI-H2228 cells assessed as combination index at ED 50 measured after 72 hrs in presence of MEK inhibitor GSK1120212 by Cell-titer Glo reagent assay
ASPC1 = assay: Synergistic cytotoxicity against human ASPC1 cells assessed as combination index at ED 50 measured after 72 hrs in presence of MEK inhibitor GSK1120212 by Cell-titer Glo reagent assay
SW-620 = assay: Synergistic cytotoxicity against human SW620 cells expressing KRAS mutant assessed as combination index at ED 50 measured after 72 hrs in presence of MEK inhibitor GSK1120212 by Cell-titer Glo reagent assay
Capan-2 = assay: Synergistic cytotoxicity against human Capan-2 cells expressing KRAS mutant assessed as combination index at ED75 measured after 72 hrs in presence of MEK inhibitor GSK1120212 by Cell-titer Glo reagent assay
NCI-H2170 = assay: Synergistic cytotoxicity against human NCI-H2170 cells assessed as combination index at ED75 measured after 72 hrs in presence of MEK inhibitor GSK1120212 by Cell-titer Glo reagent assay

## CC(C)Oc1ccc(C(=O)N[C@H](CNC(=O)CN(C)C)Cc2ccc(-c3cn4cccc([C@H](C)O)c4n3)cc2)cc1Cl [GSK-923295A]
NCI-H2030
  CI: 0.308
SK-N-FI [1]
  CI: 0.643
NCI-H1299
  CI: 0.511
NCI-H460
  CI: 0.25
SK-N-FI [2]
  CI: 0.67
[3]
  CI: 0.118
NB-1691
  CI: 0.241
NCI-H2228
  CI: 0.317
ASPC1
  CI: 0.566
SW-620
  CI: 0.521
Capan-2
  CI: 0.153
NCI-H2170
  CI: 0.624
